We go through 22 molecules from patent US20240335431A1, “1-H-PYRROLO[2,3-c]PYRIDINE COMPOUNDS” (Acerta Pharma B.V., priority 2023, published 2024).

For one data set, the target named is hERG (Homo sapiens (Human), UniProt Q12809). As to the kind of experiment: hERG assay 1 (standard), SyncroPatch 384PE. It counts as cell-based. Particulars: CHO cells, room temperature, up to 40 uM. Summed up: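 Automated patch clamp on hERG-expressing CHO-K1 cells at room temperature, +60/−40 mV protocol every 15 s. Six-point cumulative concentrations 139 nM to 40 uM (0.33% DMSO final); IC50 from one-site fit of % inhibition. Wells required ≥30 MegaOhm seal, current >0.2 nA, Z prime >0.4.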
Chain of hERG (Q12809 whole entry): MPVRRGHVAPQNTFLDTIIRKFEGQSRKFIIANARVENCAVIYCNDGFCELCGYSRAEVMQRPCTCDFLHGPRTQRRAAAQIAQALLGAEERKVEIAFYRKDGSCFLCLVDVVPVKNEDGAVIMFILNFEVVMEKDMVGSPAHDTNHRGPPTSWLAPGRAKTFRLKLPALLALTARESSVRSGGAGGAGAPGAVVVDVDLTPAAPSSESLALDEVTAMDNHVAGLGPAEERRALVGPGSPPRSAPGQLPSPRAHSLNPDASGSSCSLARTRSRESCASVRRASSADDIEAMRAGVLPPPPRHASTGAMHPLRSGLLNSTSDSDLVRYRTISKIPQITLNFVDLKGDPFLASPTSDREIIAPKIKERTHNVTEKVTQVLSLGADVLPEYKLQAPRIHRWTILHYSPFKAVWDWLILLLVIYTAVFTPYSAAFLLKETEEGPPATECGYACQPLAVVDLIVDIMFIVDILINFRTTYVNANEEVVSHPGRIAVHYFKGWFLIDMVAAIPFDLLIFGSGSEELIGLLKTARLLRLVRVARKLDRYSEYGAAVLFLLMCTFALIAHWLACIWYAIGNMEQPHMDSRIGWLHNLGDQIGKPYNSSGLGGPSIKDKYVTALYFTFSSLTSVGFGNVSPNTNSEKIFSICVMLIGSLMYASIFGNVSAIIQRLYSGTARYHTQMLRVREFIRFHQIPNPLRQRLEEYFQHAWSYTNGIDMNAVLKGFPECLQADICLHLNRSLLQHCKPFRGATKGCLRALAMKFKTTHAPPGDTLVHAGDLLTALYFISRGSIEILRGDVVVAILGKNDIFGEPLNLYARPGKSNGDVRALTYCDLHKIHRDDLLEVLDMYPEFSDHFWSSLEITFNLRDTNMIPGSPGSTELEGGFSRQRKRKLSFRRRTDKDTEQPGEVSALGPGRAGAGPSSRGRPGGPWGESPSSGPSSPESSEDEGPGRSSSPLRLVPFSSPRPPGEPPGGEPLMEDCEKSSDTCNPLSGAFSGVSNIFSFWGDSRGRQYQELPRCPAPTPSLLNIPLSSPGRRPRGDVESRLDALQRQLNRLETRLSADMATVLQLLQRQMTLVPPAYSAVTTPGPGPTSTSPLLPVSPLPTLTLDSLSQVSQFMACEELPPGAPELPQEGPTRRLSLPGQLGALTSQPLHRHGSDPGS
A general note: hERG is a cardiac potassium channel; its block is linked to QT prolongation.

A short description of data set [1]: Human liver microsomes (HLMs) intrinsic clearance assay. It counts as in vitro ADME. (Microsomes from liver hold many membrane-bound enzymes, among them those of drug oxidation.)
Another data set concerns HEL cells. As to the kind of experiment: Proliferation assay, HEL control cell line (CellTiter-Glo, 7 days). The data set is classed as cell-based, human. The essentials:
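Cells were seeded at line-specific low densities for linear growth, exposed to 3.16-fold serial compound dilutions at 0.1% DMSO, and incubated 7 days at 37 °C, 5% CO2. Viability was read by CellTiter-Glo 2.0 luminescence; IC50 came from one-site fits of % inhibition, normalized between DMSO-treated cells (100%) and a day-0 plate (0%).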

Where [2] appears, read: human, microsomes, pH 7.4, HLM CLint.
[3] abbreviates: human, microsomes, 1 µM, pH 7.4.

Where two headings read alike, the source gives them in different places.

By IC50 is commonly meant the concentration at which inhibition is half-maximal. A low value points to greater potency in that assay. In the case of `COCCN(C)CCC[C@H](C(C)C)N1CCC(C(=O)c2cn(-c3ccc(F)cc3C(=O)N(C(C)C)C(C)C)c3cnccc23)CC1` (racemic) [Example 23, rac-(R)-5-Fluoro-N,N-diisopropyl-2-(3-(1-(6-((2-methoxyethyl)(methyl)amino)-2-methylhexan-3-yl)piperidine-4-carbonyl)-1H-pyrrolo[2,3-c]pyridin-1-yl)benzamide], the IC50 was 30.6 µM against hERG and above 10 µM with HEL cells (Homo sapiens, HEL, 168 h). This molecule also showed a microsomal CLint at 1 µM in data set [1] (setting [2]) of 156 µL/min/mg.

With `CC(C)N(C(=O)c1cc(F)ccc1-n1cc(C(=O)C2CCN(C(=O)[C@H]3NC[C@@H]4CC[C@@H]43)CC2)c2ccncc21)C(C)C` (relative stereo) [Example 25, rel-2-(3-(1-((1R,2R,5S)-3-Azabicyclo[3.2.0]heptane-2-carbonyl)piperidine-4-carbonyl)-1H-pyrrolo[2,3-c]pyridin-1-yl)-5-fluoro-N,N-diisopropylbenzamide], the IC50 at hERG is above 40 µM; in the data set with HEL cells (Homo sapiens, HEL, 168 h), above 10 µM. The microsomal CLint at 1 µM in data set [1] (setting [2]) came out at 94 µL/min/mg.

Consider `Cc1c(C(=O)C2CCN(C(=O)[C@@H]3CCC(C)(C)N3)CC2)c2ccncc2n1-c1ccc(F)cc1C(=O)N(C(C)C)C(C)C` (single isomer, unassigned) [Compound 56-2], for which the IC50 against hERG is above 40 µM; with HEL cells, above 10 µM. In addition, the “HLM CLint” value in data set [1] (setting [3]) worked out at 91 µL/min/mg.

For `CCN(C(=O)c1cc(F)ccc1-n1c(C)c(C(=O)C2CCN(C(=O)[C@H]3NC[C@@H]4C[C@@H]43)CC2)c2ccncc21)C(C)C` (single isomer, unassigned) [Example 48-1], the figures for the IC50 against hERG and in the data set on HEL cells were above 40 µM and above 10 µM, respectively. Also, in data set [1] (setting [3]), the “HLM CLint” value was determined as 69 µL/min/mg.

In the case of `CCN(C(=O)c1cc(F)ccc1-n1c(C)c(C(=O)C2CCN(C(=O)[C@H]3NC[C@@H]4C[C@@H]43)CC2)c2ccncc21)C(C)C` (single isomer, unassigned) [Example 48-2], the IC50 was above 40 µM against hERG and above 10 µM in the data set with HEL cells. For the same molecule, the “HLM CLint” value in data set [1] (setting [3]) came to 55 µL/min/mg.

Consider `CCN(C(=O)c1cc(F)ccc1-n1c(C)c(C(=O)C2CCN(C(=O)[C@@H]3CCC4(CC4)N3)CC2)c2ccncc21)C(C)C` (single isomer, unassigned) [Example 49-2], for which the values for the IC50 against hERG and in the data set on HEL cells were above 38 µM and above 10 µM, respectively. In addition, the “HLM CLint” value in data set [1] (1 mg/mL HLM, NADPH) stood at 127 µL/min/mg.

For `CCN(C(=O)c1cc(F)ccc1-n1c(C)c(C(=O)C2CCN(C(=O)[C@@H]3CCC(C)(C)N3)CC2)c2ccncc21)C(C)C` (single isomer, unassigned) [Example 50-2], the IC50 is above 40 µM against hERG and above 10 µM with HEL cells. For the same molecule, the “HLM CLint” value in data set [1] (setting [3]) worked out at 48 µL/min/mg.

Consider `Cc1c(C(=O)C2CCN(C(=O)[C@H]3NC[C@@H]4C[C@@H]43)CC2)c2ccncc2n1-c1ccc(F)cc1C(=O)N(CC(F)(F)F)C(C)C` (single isomer, unassigned) [Example 51-1], for which the IC50 against hERG is above 40 µM; in the data set with HEL cells (Homo sapiens, HEL, 168 h), above 10 µM. Further, the microsomal CLint at 1 µM in data set [1] (setting [2]) worked out at 54 µL/min/mg.

As to `Cc1c(C(=O)C2CCN(C(=O)[C@H]3NC[C@@H]4C[C@@H]43)CC2)c2ccncc2n1-c1ccc(F)cc1C(=O)N(CC(F)(F)F)C(C)C` (single isomer, unassigned) [Example 51-2], the IC50 was above 40 µM against hERG and above 10 µM in the data set with HEL cells. Also, in data set [1] (setting [3]), the “HLM CLint” value came out at 52 µL/min/mg.

As to `CCN(C(=O)c1cc(F)ccc1-n1c(C)c(C(=O)[C@@H]2CCN(C(=O)[C@@H]3CCC4(CC4)N3)[C@@H](C)C2)c2ccncc21)C(C)C` (single isomer, unassigned) [Example 52-1, N-Ethyl-5-fluoro-N-isopropyl-2-(2-methyl-3-((2R*,4S*)-2-methyl-1-((S)-4-azaspiro[2.4]heptane-5-carbonyl)piperidine-4-carbonyl)-1H-pyrrolo[2,3-c]pyridin-1-yl)benzamide], the microsomal CLint at 1 µM in data set [1] (human, microsomes, pH 7.4, 1 mg/mL HLM, NADPH, read-out: HLM CLint) was 150 µL/min/mg.

In the case of `CCN(C(=O)c1cc(F)ccc1-n1c(C)c(C(=O)[C@@H]2CCN(C(=O)[C@@H]3CCC4(CC4)N3)[C@@H](C)C2)c2ccncc21)C(C)C` (single isomer, unassigned) [Example 52-2, N-Ethyl-5-fluoro-N-isopropyl-2-(2-methyl-3-((2R*,4S*)-2-methyl-1-((S)-4-azaspiro[2.4]heptane-5-carbonyl)piperidine-4-carbonyl)-1H-pyrrolo[2,3-c]pyridin-1-yl)benzamide], the IC50 against hERG is 14.2 µM; in the data set on HEL cells (Homo sapiens, HEL, 168 h), above 10 µM. In addition, the “HLM CLint” value in data set [1] (1 mg/mL HLM, NADPH) came to 150 µL/min/mg.

For the molecule `Cc1c(C(=O)[C@@H]2CCN(C(=O)[C@H]3NC[C@@H]4C[C@@H]43)[C@@H](C)C2)c2ccncc2n1-c1ccc(F)cc1C(=O)N(CC(F)(F)F)C(C)C` (single isomer, unassigned) [Example 53-3, 2-(3-((2R*,4S*)-1-((1S,2S,5R)-3-Azabicyclo[3.1.0]hexane-2-carbonyl)-2-methylpiperidine-4-carbonyl)-2-methyl-1H-pyrrolo[2,3-c]pyridin-1-yl)-5-fluoro-N-isopropyl-N-(2,2,2-trifluoroethyl)benzamide], the IC50 against hERG was 31.4 µM; with HEL cells, above 10 µM. Also, in data set [1] (setting [3]), the “HLM CLint” value stood at 155 µL/min/mg.

For `Cc1c(C(=O)C2CCN(C(=O)[C@H]3NC[C@@H]4C[C@@H]43)CC2)c2ccncc2n1-c1ccc(F)cc1C(=O)N(C(C)C)C(C)C` (single isomer, unassigned) [Example 55-1], the IC50 is above 40 µM at hERG and above 10 µM in the data set on HEL cells (Homo sapiens, HEL, 168 h). Besides, in data set [1] (setting [2]), the microsomal CLint at 1 µM came out at 125 µL/min/mg.

Consider `Cc1c(C(=O)C2CCN(C(=O)[C@H]3NC[C@@H]4C[C@@H]43)CC2)c2ccncc2n1-c1ccc(F)cc1C(=O)N(C(C)C)C(C)C` (single isomer, unassigned) [Example 55-2], for which the half-maximal inhibitory concentration (IC50) on hERG was above 40 µM; with HEL cells, above 10 µM. Moreover, the “HLM CLint” value in data set [1] (setting [3]) is 194 µL/min/mg.

On to `Cc1c(C(=O)C2CCN(C(=O)[C@@H]3CCC(C)(C)N3)CC2)c2ccncc2n1-c1ccc(F)cc1C(=O)N(C(C)C)C(C)C` (single isomer, unassigned) [Example 56-1], for which the IC50 at hERG was above 40 µM; with HEL cells (Homo sapiens, HEL, 168 h), above 10 µM. For the same molecule, in data set [1] (setting [2]), the microsomal CLint at 1 µM came to 133 µL/min/mg.

In the case of `Cc1c(C(=O)C2CCN(C(=O)[C@H]3NC[C@@H]4C[C@@H]43)CC2)c2ccncc2n1-c1ccc(F)cc1C(=O)N(C(C)C)[C@H](C)C(F)(F)F` (single isomer, unassigned) [Example 57-1], the IC50 was above 38.5 µM against hERG and above 10 µM in the data set with HEL cells (Homo sapiens, HEL, 168 h). In data set [1] (setting [2]), this molecule gave a microsomal CLint at 1 µM of 84 µL/min/mg.

Turning to `Cc1c(C(=O)C2CCN(C(=O)[C@@H]3CCC4(CC4)N3)CC2)c2ccncc2n1-c1ccc(F)cc1C(=O)N1[C@H](C)COC[C@H]1C` (single isomer, unassigned) [Example 58-2], the IC50 against hERG was above 40 µM; with HEL cells, above 10 µM. In data set [1] (1 mg/mL HLM, NADPH), the “HLM CLint” value worked out at 85 µL/min/mg.

As for `Cc1c(C(=O)[C@@H]2CCN(C(=O)[C@@H]3CC[C@H](C)N3)[C@@H](C)C2)c2ccncc2n1-c1ccc(F)cc1C(=O)N(C(C)C)C(C)C` (stereo in doubt) [Example 62, 5-Fluoro-N,N-diisopropyl-2-(2-methyl-3-((2S,4RS)-2-methyl-1-((2S,5S)-5-methylpyrrolidine-2-carbonyl)piperidine-4-carbonyl)-1H-pyrrolo[2,3-c]pyridin-1-yl)benzamide], the IC50 against hERG was above 40 µM; in the data set on HEL cells (Homo sapiens, HEL, 168 h) it was above 10 µM. Besides, the microsomal CLint at 1 µM in data set [1] (setting [2]) was 12 µL/min/mg.

As for `CCN(C(=O)c1cc(F)ccc1-n1c(C)c(C(=O)[C@@H]2CCN(C(=O)[C@@H]3CC[C@H](C)N3)[C@@H](C)C2)c2ccncc21)C(C)C` (stereo in doubt) [Example 63, N-Ethyl-5-fluoro-N-isopropyl-2-(2-methyl-3-((2S,4RS)-2-methyl-1-((2S,5S)-5-methylpyrrolidine-2-carbonyl)piperidine-4-carbonyl)-1H-pyrrolo[2,3-c]pyridine-1-yl)benzamide], the IC50 is above 40 µM at hERG and above 10 µM with HEL cells (Homo sapiens, HEL, 168 h). The microsomal CLint at 1 µM in data set [1] (setting [2]) is 63 µL/min/mg.

With `Cc1c(C(=O)[C@@H]2CCN(C(=O)[C@@H]3CC[C@@H](C)N3)[C@@H](C)C2)c2ccncc2n1-c1ccc(F)cc1C(=O)N(C(C)C)C(C)C` (stereo in doubt) [Example 64, 5-Fluoro-N,N-diisopropyl-2-(2-methyl-3-((2S,4RS)-2-methyl-1-((2S,5R)-5-methylpyrrolidine-2-carbonyl)piperidine-4-carbonyl)-1H-pyrrolo[2,3-c]pyridin-1-yl)benzamide], the IC50 on hERG is 32.7 µM; in the data set with HEL cells (Homo sapiens, HEL, 168 h), above 10 µM. In data set [1] (setting [2]), this molecule registered a microsomal CLint at 1 µM of 88 µL/min/mg.

Consider `CC(C)N(C(=O)c1cc(F)ccc1-n1cc(C(=O)C2CN(C(=O)[C@H]3NC4CCC3CC4)C2)c2ccncc21)C(C)C` [Example 6, (S)-2-(3-(1-(2-Azabicyclo[2.2.2]octane-3-carbonyl)azetidine-3-carbonyl)-1H-pyrrolo[2,3-c]pyridin-1-yl)-5-fluoro-N,N-diisopropylbenzamide], for which the microsomal CLint at 1 µM in data set [1] (setting [2]) worked out at 40 µL/min/mg. Further, the IC50 in the data set on HEL cells (Homo sapiens, HEL, 168 h) was above 10 µM.

In the case of `CCN(C(=O)c1cc(F)ccc1-n1cc(C(=O)C2CN(C(=O)[C@H]3NC4CCC3CC4)C2)c2ccncc21)C(C)C` [Example 9, (S)-2-(3-(1-(2-Azabicyclo[2.2.2]octane-3-carbonyl)azetidine-3-carbonyl)-1H-pyrrolo[2,3-c]pyridin-1-yl)-N-ethyl-5-fluoro-N-isopropylbenzamide], the microsomal CLint at 1 µM in data set [1] (setting [2]) is 27 µL/min/mg. Besides, the IC50 with HEL cells (Homo sapiens, HEL, 168 h) is above 10 µM.
